Assay results from patent US10149478B2, “Biologically active formulation” (Endura S.P.A., priority 2005, dated 2018).

Tested on: Bemisia tabaci (whitely) biotype B
Assay: Leaf dip bioassay, mortality assay for insecticide compounds (Example 20)
Type: in vivo
Details: for LC50% a.i. (*): quantity of pure insecticide achieving 50% mortality; for resistance factor: relative to non-resistant insects
Procedure: The “leaf dip bioassay” used for testing the activity of insecticides against Bemisia tabaci (whitely) biotype B, was similar to that described by Cahill, M et al, Bull. Entomol. Res. 85, 181-187, 1995.
Cotton plants (Gossypium hirsutum L.) were grown without any exposure to the insecticides. The leaves were cut up into disc shapes and immersed in an aqueous solution of insecticide containing 0.01% of Agral then left to dry at 25° C.
Control leaves were immersed in Agral and distilled water only.
About 20 adult insects were placed onto the small discs of treated cotton leaf.
The insects were allowed to feed and maximum mortality was evaluated at 24 and 48 hours.
LC50% a.i. and LC99% a.i indicate the quantity of active ingredient (i.e pure insecticide) able to achieve mortality for 50% and 99% of the insects tested.

[1] = adults on treated cotton leaf discs, maximum mortality evaluated at 24 and 48 hours

Row | Compound | LC50% a.i. (*) [1] [ppm] | LC99% a.i. (*) (quantity of pure insecticide achieving 99% mortality, adults on treated cotton leaf discs, maximum mortality evaluated at 24 and 48 hours) [ppm] | resistance factor [times]
1 | C/C(=N\C#N)N(C)Cc1ccc(Cl)nc1 [Acetamiprid] | 0.00038 | 0.098 | 21
2 | O=[N+]([O-])NC1=NCCN1Cc1ccc(Cl)nc1 [Imidacloprid] | 4.7 |  | 2336
